Assay results reported in PMC8147360, “AGMO Inhibitor Reduces 3T3-L1 Adipogenesis” (Cells, 2021).

Tests used:
[1] = biological target: T1, Alkylglycerol monooxygenase (AGMO) (Rattus norvegicus, UniProt A0JPQ8); assay: HPLC fluorescence activity assay with 1-O-pyrenedecyl-sn-glycerol in rat liver microsomes, coupled to FALDH (FALDH not inhibited); type: biochemical
T1 construct: native enzyme in rat liver microsomes
T1 sequence (A0JPQ8 1-447): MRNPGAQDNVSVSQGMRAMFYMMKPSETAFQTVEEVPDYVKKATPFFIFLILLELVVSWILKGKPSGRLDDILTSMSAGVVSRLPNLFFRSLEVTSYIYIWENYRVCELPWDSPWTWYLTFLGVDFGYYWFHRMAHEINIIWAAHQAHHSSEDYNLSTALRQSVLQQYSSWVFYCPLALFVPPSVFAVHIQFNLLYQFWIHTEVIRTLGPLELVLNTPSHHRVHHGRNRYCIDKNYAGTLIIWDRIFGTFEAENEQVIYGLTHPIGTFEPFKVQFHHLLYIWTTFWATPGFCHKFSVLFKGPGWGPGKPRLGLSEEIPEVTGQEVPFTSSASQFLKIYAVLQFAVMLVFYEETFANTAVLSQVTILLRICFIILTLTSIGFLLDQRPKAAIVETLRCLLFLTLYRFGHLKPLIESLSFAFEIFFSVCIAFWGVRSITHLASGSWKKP

[2] = biological target: T2, phenylalanine hydroxylase (PAH) (Rattus norvegicus, UniProt P04176); assay: HPLC tyrosine fluorescence assay with purified recombinant PAH; type: biochemical
T2 construct: rat PAH maltose fusion protein, expressed in E. coli
T2 sequence (P04176 2-453): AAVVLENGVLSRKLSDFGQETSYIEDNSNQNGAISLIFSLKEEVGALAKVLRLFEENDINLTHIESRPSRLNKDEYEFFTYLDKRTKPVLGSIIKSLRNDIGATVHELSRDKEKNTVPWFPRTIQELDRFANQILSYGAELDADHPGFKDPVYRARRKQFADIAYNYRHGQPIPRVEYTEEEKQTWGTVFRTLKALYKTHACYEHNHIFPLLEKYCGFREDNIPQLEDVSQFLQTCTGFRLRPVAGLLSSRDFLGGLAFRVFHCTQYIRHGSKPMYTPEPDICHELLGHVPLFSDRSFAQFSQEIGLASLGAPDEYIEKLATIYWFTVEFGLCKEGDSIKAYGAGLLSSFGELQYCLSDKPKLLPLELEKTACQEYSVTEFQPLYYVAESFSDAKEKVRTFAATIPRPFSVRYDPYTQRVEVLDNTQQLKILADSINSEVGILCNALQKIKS

CC1Nc2nc(N(C)C)[nH]c(=O)c2NC1C (centres unmarked) [compound 6, 2-(dimethylamino)-6,7-dimethyl-5,6,7,8-tetrahydro-4(3H)-pteridinone]
IC50 [1]: ~50 µM
IC50 [2]: 360 to 430 µM
